The text below walks through data of ChEMBL document CHEMBL3992499, “Synthesis, biological evaluation, QSAR and molecular dynamics simulation studies of potential fibroblast growth factor receptor 1 inhibitors for the treatment of gastric cancer” (Eur J Med Chem, 2017).

Structures are written as SMILES. Calls of active or inactive are those of the source. The calls are words filed in the database; no cut-off is given here. Some results are limits rather than exact numbers.

The test system of one assay is BGC-823. Description: Antiproliferative activity against human BGC823 cells after 72 hrs by MTT assay. The settings on record: BGC-823, 72 h. (In general: Tetrazolium assays rely on reduction of a dye to a coloured formazan, in cell work by metabolically active cells.)
In assay [1] the test system is SGC-7901. Description: Antiproliferative activity against human SGC7901 cells after 72 hrs by MTT assay. The following applies: SGC-7901, 72 h.
A further assay deals with MGC-803. Description: Antiproliferative activity against human MGC803 cells after 72 hrs by MTT assay. The following applies: MGC-803, 72 h.
In assay [2] the test system is SGC-7901. Description: Cell cycle arrest in human SGC7901 cells assessed as reduction in G2/M phase up to 20 uM after 8 hrs by propidium iodide staining based flow cytometry. In kind it is functional. For orientation: A flow cytometer gives signals particle by particle.
Assay [3] concerns SGC-7901. Description: Induction of apoptosis in human SGC7901 cells assessed as increase in cleaved PARP expression level at 10 uM after 48 hrs by Western blot method. In kind it is functional, cell-based. (In western blotting, separated proteins are transferred to a membrane and probed.)
Assay [4] relates to SGC-7901. In words: Induction of apoptosis in human SGC7901 cells assessed as nuclear fragmentation up to 20 uM after 12 hrs by Hoechst 33342 staining based fluorescence microscopic method. It counts as functional, cell-based.
Assay [5] concerns SGC-7901. Description: Induction of apoptosis in human SGC7901 cells assessed as increase in cleaved PARP expression level after 48 hrs by Western blot method. In kind it is functional, cell-based.
For assay [6], the system named is SGC-7901. In words: Induction of apoptosis in human SGC7901 cells assessed as downregulation of Cyclin D1 expression by western blot method. In kind it is functional, cell-based.
Assay [7] relates to SGC-7901. Description: Cell cycle arrest in human SGC7901 cells assessed as accumulation at G0/G1 phase after 8 hrs by propidium iodide staining based flow cytometry. It counts as functional.
The test system of assay [8] is SGC-7901. In words: Induction of apoptosis in human SGC7901 cells assessed as decrease in Bcl2 expression level at 10 uM after 48 hrs by Western blot method. In kind it is functional, cell-based.
Assay [9] has as its system SGC-7901. Description: Induction of apoptosis in human SGC7901 cells assessed as decrease in Bcl2 expression level after 48 hrs by Western blot method. It counts as functional, cell-based.
In assay [10] the test system is SGC-7901. Description: Induction of apoptosis in human SGC7901 cells assessed as chromatin condensation after 12 hrs by Hoechst 33342 staining based fluorescence microscopic method. In kind it is functional, cell-based.

The term IC50 denotes the concentration that inhibits the measured activity by half. Higher therefore signals a need for much substance. As for `CCC(=O)Oc1ccc(/C=C2\CC/C(=C\c3ccc(OC(=O)CC)c(OC)c3)C2=O)cc1OC`, the values for the IC50 in the assay on BGC-823, with SGC-7901 [1] and in the assay on MGC-803 were 11.9 µM, 4.7 µM and 8.3 µM, respectively.

Consider `COc1cc(/C=C2\CC/C(=C\c3ccc(OC(=O)C(C)C)c(OC)c3)C2=O)ccc1OC(=O)C(C)C`, for which the results for the IC50 with BGC-823, in the assay on SGC-7901 [1] and in the assay with MGC-803 were 10.1 µM, 5.7 µM and 5 µM, respectively.

`COc1cc(/C=C2\CC/C(=C\c3c[nH]c4ccc(Br)cc34)C2=O)ccc1O`: the result in the assay on SGC-7901 [2], with SGC-7901 [3], in the assay on SGC-7901 [4] and with SGC-7901 [8] was Active. Besides, the Activity entry in the assay on SGC-7901 [5], in the assay with SGC-7901 [6], in the assay on SGC-7901 [7], in the assay with SGC-7901 [9] and in the assay on SGC-7901 [10] was “Dose-dependent effect” each time. Also, the figures for the IC50 with BGC-823, in the assay on SGC-7901 [1] and in the assay with MGC-803 were 2 µM, 9.6 µM and 2.6 µM, respectively.

With `CCN(CC)c1ccc(/C=C/C(=O)/C=C/c2ccc(O)c(OC)c2)cc1`, the result in the assay on SGC-7901 [2], in the assay with SGC-7901 [3], in the assay with SGC-7901 [4] and in the assay with SGC-7901 [8] was Active. Besides, the Activity entry in the assay on SGC-7901 [5], in the assay on SGC-7901 [6], in the assay on SGC-7901 [7], in the assay on SGC-7901 [9] and in the assay on SGC-7901 [10] was “Dose-dependent effect” each time. Besides, the values for the IC50 with BGC-823, in the assay on SGC-7901 [1] and in the assay with MGC-803 were 2.5 µM, 8.2 µM and 2.1 µM, respectively.

As to `COc1cc(/C=C2\CCC/C(=C\c3ccc(N4CCCCC4)cc3)C2=O)ccc1OC(=O)C(C)C`, the results for the IC50 in the assay on BGC-823, with SGC-7901 [1] and in the assay with MGC-803 were 31.5 µM, 18.8 µM and 11.8 µM, respectively.

`COc1cc(CCc2cc(NC(=O)c3ccc(N4C[C@@H](C)N[C@@H](C)C4)cc3)n[nH]2)cc(OC)c1` [FEXAGRATINIB]: the IC50 in the assay on BGC-823 came to 7.9 µM; with SGC-7901 [1], 2.8 µM; in the assay on MGC-803 it was 6.2 µM.

Regarding `COc1cc(/C=C/C(=O)/C=C/c2ccc(N3CCCC3)cc2)ccc1O`, the IC50 in the assay with BGC-823 was 21.2 µM; in the assay with SGC-7901 [1], 8.2 µM; with MGC-803, 12.3 µM.

For the molecule `CC(Cc1ccc(O)c(O)c1)C(C)Cc1ccc(O)c(O)c1` (configuration not stated) [NORDIHYDROGUAIARETIC ACID], the IC50 with BGC-823 was over 60 µM; in the assay with SGC-7901 [1] it was over 60 µM; in the assay with MGC-803, 45.8 µM.
